biological target: T1, human mGlu2 receptor (Homo sapiens, UniProt Q14416); test: FLIPR intracellular Ca2+ assay, potentiation of glutamate response in HEK293 clone expressing mGlu2 receptor, rGLAST and Galpha16; assay type: cell-based; conditions: 1 μM glutamate added ten minutes after test compound, HEK293 cells with human mGlu2, rGLAST, Galpha16, read-out: EC50 values of potentiation effect to glutamate
T1 construct: expressed in transfected cells; host or cells: HEK293
Outline: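 HEK293 cells stably expressing human mGlu2, rat GLAST and Gα16 were loaded with 2 µM Fluo-4 AM and intracellular Ca2+ read by FLIPR. Compound added alone (agonism), then with submaximal glutamate (e.g. 1 µM; potentiation). Background-subtracted peaks normalized to 100 µM glutamate response; EC50 from four-parameter fit.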

T1 sequence (Q14416 19-872): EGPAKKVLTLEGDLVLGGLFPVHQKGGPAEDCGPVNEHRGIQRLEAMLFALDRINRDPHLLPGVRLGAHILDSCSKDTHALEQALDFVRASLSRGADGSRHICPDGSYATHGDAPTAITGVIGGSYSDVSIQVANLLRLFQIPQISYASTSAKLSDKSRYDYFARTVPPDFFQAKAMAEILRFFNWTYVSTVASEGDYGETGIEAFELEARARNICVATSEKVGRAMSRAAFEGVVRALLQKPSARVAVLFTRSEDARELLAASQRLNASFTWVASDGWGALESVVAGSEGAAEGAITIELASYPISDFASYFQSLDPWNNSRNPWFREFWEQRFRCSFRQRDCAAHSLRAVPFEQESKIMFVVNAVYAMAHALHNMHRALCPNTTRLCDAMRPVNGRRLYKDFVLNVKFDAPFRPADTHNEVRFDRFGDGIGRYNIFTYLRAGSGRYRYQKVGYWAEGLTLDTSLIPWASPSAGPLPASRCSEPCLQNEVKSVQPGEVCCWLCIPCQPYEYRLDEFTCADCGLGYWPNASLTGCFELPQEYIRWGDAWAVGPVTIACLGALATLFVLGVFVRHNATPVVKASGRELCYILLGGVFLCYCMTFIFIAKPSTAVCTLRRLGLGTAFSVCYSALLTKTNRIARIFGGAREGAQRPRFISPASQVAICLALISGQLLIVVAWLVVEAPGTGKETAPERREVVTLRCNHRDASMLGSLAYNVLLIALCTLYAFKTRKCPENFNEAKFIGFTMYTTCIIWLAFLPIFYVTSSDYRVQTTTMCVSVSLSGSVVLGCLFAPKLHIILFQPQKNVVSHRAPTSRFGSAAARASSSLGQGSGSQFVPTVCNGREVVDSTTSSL

SMILES | EC50
CCCN1Cc2cc(NCc3n[nH]cc3-c3cccc(C(F)(F)F)c3)ccc2C1=O [Example 582] | 1 to 10 µM
O=C1c2ccc(OCc3c[nH]nc3-c3ccc(C(F)(F)F)cc3)cc2CN1Cc1ccc(OC(F)(F)F)cc1 [Example 585, 2-(4-Trifluoromethoxy-benzyl)-5-[3-(4-trifluoromethyl-phenyl)-1H-pyrazol-4-ylmethoxy]-2,3-dihydro-isoindol-1-one] | < 1 µM
O=C1c2ccc(OCc3c[nH]nc3-c3ccc(C(F)(F)F)cc3)cc2CN1CC1CCCCC1 [Example 586, 2-Cyclohexylmethyl-5-[3-(4-trifluoromethyl-phenyl)-1H-pyrazol-4-ylmethoxy]-2,3-dihydro-isoindol-1-one] | < 1 µM
CC(C)CN1Cc2cc(OCc3c[nH]nc3-c3ccc(C(F)(F)F)cc3)ccc2C1=O [Example 587, 2-Isobutyl-5-[3-(4-trifluoromethyl-phenyl)-1H-pyrazol-4-ylmethoxy]-2,3-dihydro-isoindol-1-one] | < 1 µM
O=C1c2ccc(OCc3c[nH]nc3-c3ccc(C(F)(F)F)cc3)cc2CN1C1CCCC1 [Example 588, 2-Cyclopentyl-5-[3-(4-trifluoromethyl-phenyl)-1H-pyrazol-4-ylmethoxy]-2,3-dihydro-isoindol-1-one] | < 1 µM
O=C1c2ccc(OCc3c[nH]nc3-c3ccc(C(F)(F)F)cc3)cc2CN1c1ccccc1 [Example 589, 2-Phenyl-5-[3-(4-trifluoromethyl-phenyl)-1H-pyrazol-4-ylmethoxy]-2,3-dihydro-isoindol-1-one] | 1 to 10 µM
CCCN1Cc2cc(NCc3c(C)noc3-c3ccccc3)ccc2C1=O [Example 590, 5-[(3-Methyl-5-phenyl-isoxazol-4-ylmethyl)-amino]-2-propyl-2,3-dihydro-isoindol-1-one] | < 1 µM

Next, values leading:

EC50 | SMILES
< 1 µM | CCCN1Cc2cc(NCc3c[nH]nc3-c3cccc(Cl)c3)ccc2C1=O [Example 577, 5-{[3-(3-Chloro-phenyl)-1H-pyrazol-4-ylmethyl]-amino}-2-propyl-2,3-dihydro-isoindol-1-one]
< 1 µM | CCCN1Cc2cc(NCc3c[nH]nc3-c3cccc(C(F)(F)F)c3)ccc2C1=O [Example 578]
< 1 µM | CCCN1Cc2cc(NCc3c[nH]nc3-c3ccc(F)cc3)ccc2C1=O [Example 579, 5-{[3-(4-Fluorophenyl)-1H-pyrazol-4-ylmethyl]-amino}-2-propyl-2,3-dihydro-isoindol-1-one]
< 1 µM | CCCN1Cc2cc(NCc3c[nH]nc3-c3cccc(F)c3)ccc2C1=O [Example 580, 5-{[3-(3-Fluorophenyl)-1H-pyrazol-4-ylmethyl]-amino}-2-propyl-2,3-dihydro-isoindol-1-one]
< 1 µM | CCCN1Cc2cc(NCc3c[nH]nc3-c3ccccc3)ccc2C1=O [Example 581, 5-[(3-Phenyl-1H-pyrazol-4-ylmethyl)-amino]-2-propyl-2,3-dihydro-isoindol-1-one]

biological target: mGlu3 (Homo sapiens, UniProt Q14832); test: not given; conditions: agonist; cited from earlier work
Sequence (Q14832 23-879): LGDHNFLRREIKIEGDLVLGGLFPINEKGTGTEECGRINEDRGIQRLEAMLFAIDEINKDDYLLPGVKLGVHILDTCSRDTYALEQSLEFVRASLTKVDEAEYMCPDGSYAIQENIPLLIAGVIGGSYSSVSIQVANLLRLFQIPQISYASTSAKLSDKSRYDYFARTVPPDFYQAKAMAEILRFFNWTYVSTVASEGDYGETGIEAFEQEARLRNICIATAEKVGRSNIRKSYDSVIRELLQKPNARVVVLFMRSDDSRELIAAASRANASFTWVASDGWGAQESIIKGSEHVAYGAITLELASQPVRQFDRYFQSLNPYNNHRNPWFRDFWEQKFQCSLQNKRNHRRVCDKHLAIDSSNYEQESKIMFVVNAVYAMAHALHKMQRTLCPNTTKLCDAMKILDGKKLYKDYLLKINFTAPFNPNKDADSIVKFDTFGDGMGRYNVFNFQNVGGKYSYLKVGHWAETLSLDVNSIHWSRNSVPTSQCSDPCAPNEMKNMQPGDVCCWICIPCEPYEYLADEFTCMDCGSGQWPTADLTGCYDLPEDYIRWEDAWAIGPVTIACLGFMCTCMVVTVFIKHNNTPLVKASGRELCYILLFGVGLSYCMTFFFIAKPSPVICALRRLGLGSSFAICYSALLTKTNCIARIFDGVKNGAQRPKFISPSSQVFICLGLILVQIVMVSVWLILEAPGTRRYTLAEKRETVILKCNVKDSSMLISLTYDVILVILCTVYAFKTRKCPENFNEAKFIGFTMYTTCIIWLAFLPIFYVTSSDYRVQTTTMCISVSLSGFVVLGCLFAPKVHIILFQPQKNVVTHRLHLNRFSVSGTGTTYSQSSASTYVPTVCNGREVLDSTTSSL

SMILES | EC50
N[C@@]1(C(=O)O)CC[C@H]2[C@H](C(=O)O)[C@H]21 [LY354740] | 0.02 µM
N[C@@]1(C(=O)O)CO[C@H]2[C@H](C(=O)O)[C@H]21 [LY379268] | 0.005 µM

Reference: patent US9242933B2 (AbbVie Deutschland GmbH & Co. KG, priority 2007, dated 2016)
